Calls of active or inactive are those of the source. The calls are words filed in the database; no cut-off is given here.

Test [1] has as its target T1, DNA topoisomerase I (Leishmania donovani (strain BPK282A1)) (UniProt E9BRC0).
T1 sequence (whole entry): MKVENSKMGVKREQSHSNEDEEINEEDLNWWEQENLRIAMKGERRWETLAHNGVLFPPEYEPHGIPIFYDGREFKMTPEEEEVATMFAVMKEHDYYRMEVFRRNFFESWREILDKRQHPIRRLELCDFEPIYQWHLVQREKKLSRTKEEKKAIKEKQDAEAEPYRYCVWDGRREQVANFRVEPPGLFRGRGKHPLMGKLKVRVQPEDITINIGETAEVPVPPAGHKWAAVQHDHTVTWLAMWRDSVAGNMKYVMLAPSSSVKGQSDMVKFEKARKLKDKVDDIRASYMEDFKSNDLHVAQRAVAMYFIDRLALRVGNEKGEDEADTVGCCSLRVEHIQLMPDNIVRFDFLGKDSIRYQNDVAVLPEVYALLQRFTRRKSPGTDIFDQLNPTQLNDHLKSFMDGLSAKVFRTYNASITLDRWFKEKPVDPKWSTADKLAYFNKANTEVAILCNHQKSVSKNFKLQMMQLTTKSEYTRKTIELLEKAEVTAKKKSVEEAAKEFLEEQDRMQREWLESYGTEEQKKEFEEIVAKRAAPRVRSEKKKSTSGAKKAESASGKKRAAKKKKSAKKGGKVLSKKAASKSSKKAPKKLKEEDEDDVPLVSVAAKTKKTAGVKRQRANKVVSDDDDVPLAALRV
In words: Inhibition of Leishmania donovani recombinant Top1 assessed as relaxation of supercoiled pBluescript SK(+) DNA incubated for 30 mins by agarose gel electrophoresis analysis. Conditions: dose 0.5-10 µM.

Test [2] has as its target T2, DNA topoisomerase 1 (Homo sapiens) (UniProt P11387).
T2 sequence (whole entry): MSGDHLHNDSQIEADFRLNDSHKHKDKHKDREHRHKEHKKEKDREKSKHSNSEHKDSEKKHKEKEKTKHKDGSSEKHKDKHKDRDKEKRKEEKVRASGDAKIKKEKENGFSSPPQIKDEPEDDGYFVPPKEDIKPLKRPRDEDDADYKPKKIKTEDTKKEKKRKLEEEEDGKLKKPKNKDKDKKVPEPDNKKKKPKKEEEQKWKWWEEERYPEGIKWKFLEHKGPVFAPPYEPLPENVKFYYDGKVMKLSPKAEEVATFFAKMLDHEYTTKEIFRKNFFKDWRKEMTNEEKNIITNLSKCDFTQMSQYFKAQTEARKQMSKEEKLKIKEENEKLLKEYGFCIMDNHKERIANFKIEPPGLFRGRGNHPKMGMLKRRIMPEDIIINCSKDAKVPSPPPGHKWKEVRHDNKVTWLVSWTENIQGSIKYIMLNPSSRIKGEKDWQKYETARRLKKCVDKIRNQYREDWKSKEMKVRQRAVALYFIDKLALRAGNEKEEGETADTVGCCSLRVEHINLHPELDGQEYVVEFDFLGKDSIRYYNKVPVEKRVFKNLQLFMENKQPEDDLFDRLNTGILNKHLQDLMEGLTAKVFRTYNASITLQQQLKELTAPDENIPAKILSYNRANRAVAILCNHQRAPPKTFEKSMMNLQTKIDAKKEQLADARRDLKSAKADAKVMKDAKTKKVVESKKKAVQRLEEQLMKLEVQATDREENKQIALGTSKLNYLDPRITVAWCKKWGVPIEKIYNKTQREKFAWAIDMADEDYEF
In words: Inhibition of human recombinant Top1 assessed as stabilization of clevage complex upto 100 uM measured after 30 mins.

Test [3] deals with Leishmania donovani. In words: Induction of apoptosis in Leishmania donovani Ag83 promastigotes assessed as DNA break accumulation measured at 5 uM after 15 mins by TUNEL staining based assay. It is filed as functional, organism-based.
The test system of test [4] is Leishmania donovani. Kind of test: Induction of apoptosis in Leishmania donovani Ag83 promastigotes assessed as viable cells measured at 5 uM after 6 hrs by Annexin V-FITC/PI staining based flow cytometric analysis (reference value: 99.4%). It is filed as functional.
The test system of test [5] is Leishmania donovani. Kind of test: Induction of apoptosis in Leishmania donovani Ag83 promastigotes assessed as late apoptotic cells measured at 5 uM after 12 hrs by Annexin V-FITC/PI staining based flow cytometric analysis (reference value: 0.1%). It is filed as functional. Background: A flow cytometer gives signals particle by particle.
The test system of test [6] is Leishmania donovani. Kind of test: Induction of cell cycle arrest in antimony resistant Leishmania donovani BHU575 promastigotes assessed as decrease in accumulation of cells in G0/G1 phase at 5 uM measured after 12 hrs by PI staining based flow cytometry (reference value: 80.7%). On the set-up: scale not given: the % may be the effect or the level left. It is filed as functional.

Test [7] has as its system Leishmania donovani. In words: Induction of cell cycle arrest in antimony resistant Leishmania donovani BHU575 promastigotes assessed as decrease in accumulation of cells in S phase at 5 uM measured after 24 hrs by PI staining based flow cytometry (reference value: 9.8%). On the set-up: scale not given: the % may be the effect or the level left. It is filed as functional.

For `COc1cc(-c2nc3ccccc3c3nc4ccccn4c23)cc(OC)c1OC`, the inhibition result in test [1] is “Dose-Dependent Effect”. In test [2], the inhibition entry is “inactive”. Also, in the test on Leishmania donovani [3], the outcome was Active. Besides, the Activity in the test on Leishmania donovani [4] was determined as 5%; in the test on Leishmania donovani [5], 61%; with Leishmania donovani [6] it was 46%; in the test on Leishmania donovani [7] it was 22.3%.

The values above are taken from ChEMBL document CHEMBL5316350, “Novel Pyrido[2',1':2,3]imidazo[4,5-c]quinoline Derivative Selectively Poisons Leishmania donovani Bisubunit Topoisomerase 1 to Inhibit the Antimony-Resistant Leishmania Infection in Vivo” (J Med Chem, 2023).
